Test results: PubChem BioAssay (NCI)
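Five compound concentrations were applied to cells in 96-well plates for 48 hours; endpoints were derived by simple linear interpolation of the resulting dose-response curve. At the GI50, growth is halved. TGI: concentration producing complete growth inhibition.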

How the values were obtained:
Assay in all cases: growth of human tumour cells (NCI), 48 h
SK-MEL-5 melanoma = system: SK-MEL-5 melanoma
MALME-3M melanoma = system: MALME-3M melanoma
HCT-15 colon = system: HCT-15 colon
786-0 renal = system: 786-0 renal
NCI-H460 lung = system: NCI-H460 lung
SF-268 CNS = system: SF-268 CNS
KM12 colon = system: KM12 colon
SF-539 CNS = system: SF-539 CNS
HT29 colon = system: HT29 colon
NCI-H226 lung = system: NCI-H226 lung
HCC-2998 colon = system: HCC-2998 colon
SK-MEL-28 melanoma = system: SK-MEL-28 melanoma
PC-3 prostate = system: PC-3 prostate
SK-OV-3 ovarian = system: SK-OV-3 ovarian
SNB-19 CNS = system: SNB-19 CNS
RXF 393 renal = system: RXF 393 renal
NCI-H23 lung = system: NCI-H23 lung
SNB-75 CNS = system: SNB-75 CNS
K-562 leukemia = system: K-562 leukemia
A498 renal = system: A498 renal
EKVX NSCLC = system: EKVX NSCLC
HOP-92 NSCLC = system: HOP-92 NSCLC
OVCAR-4 ovarian = system: OVCAR-4 ovarian
A549 NSCLC = system: A549 NSCLC
UACC-62 melanoma = system: UACC-62 melanoma
COLO 205 colon = system: COLO 205 colon
M14 melanoma = system: M14 melanoma
TK-10 renal = system: TK-10 renal
MOLT-4 leukemia = system: MOLT-4 leukemia
OVCAR-8 ovarian = system: OVCAR-8 ovarian
DU-145 prostate = system: DU-145 prostate
LOX IMVI melanoma = system: LOX IMVI melanoma
SK-MEL-2 melanoma = system: SK-MEL-2 melanoma
CAKI-1 renal = system: CAKI-1 renal
T-47D breast = system: T-47D breast
NCI/ADR-RES ovarian = system: NCI/ADR-RES ovarian
UACC-257 melanoma = system: UACC-257 melanoma
HS 578T breast = system: HS 578T breast
HCT-116 colon = system: HCT-116 colon
SN12C renal = system: SN12C renal
MCF7 breast = system: MCF7 breast
OVCAR-3 ovarian = system: OVCAR-3 ovarian
IGROV1 ovarian = system: IGROV1 ovarian
NCI-H522 lung = system: NCI-H522 lung
U251 CNS = system: U251 CNS
OVCAR-5 ovarian = system: OVCAR-5 ovarian
ACHN renal = system: ACHN renal
MDA-MB-231 breast = system: MDA-MB-231 breast
SR leukemia = system: SR leukemia
CCRF-CEM leukemia = system: CCRF-CEM leukemia
BT-549 breast = system: BT-549 breast
HL-60(TB) leukemia = system: HL-60(TB) leukemia
SW-620 colon = system: SW-620 colon
SF-295 CNS = system: SF-295 CNS
RPMI-8226 leukemia = system: RPMI-8226 leukemia
UO-31 renal = system: UO-31 renal

In the case of Cc1cc(O)cc(-c2nn(C)cc2-c2cc(N3CCOCC3)nc(-c3cccnc3)n2)c1, the GI50 (SK-MEL-5 melanoma) is reported as 1.76 µM, the TGI (SK-MEL-5 melanoma) is reported as 6.89 µM and the GI50 (MALME-3M melanoma) is reported as 11.6 µM. For the same compound, the TGI (MALME-3M melanoma) was 40.3 µM, the GI50 (HCT-15 colon) was 2.63 µM and the TGI (HCT-15 colon) was 23.4 µM. It also gave a GI50 (786-0 renal) of 2.52 µM, a TGI (786-0 renal) of 11.6 µM and a GI50 (NCI-H460 lung) of 3.28 µM. It also gave a TGI (NCI-H460 lung) greater than 100 µM, a GI50 (SF-268 CNS) of 7.29 µM and a TGI (SF-268 CNS) greater than 100 µM. For the same compound, the GI50 (KM12 colon) was 3.23 µM, the TGI (KM12 colon) was 20.7 µM and the GI50 (SF-539 CNS) was 1.88 µM. It also gave a TGI (SF-539 CNS) of 4.8 µM, a GI50 (HT29 colon) of 3.39 µM and a TGI (HT29 colon) of 21.9 µM. It also gave a GI50 (NCI-H226 lung) of 4.83 µM, a TGI (NCI-H226 lung) of 20.5 µM and a GI50 (HCC-2998 colon) of 13.9 µM. For the same compound, the TGI (HCC-2998 colon) was 49.5 µM, the GI50 (SK-MEL-28 melanoma) was 3.8 µM and the TGI (SK-MEL-28 melanoma) was 21.1 µM. The GI50 (PC-3 prostate) was 2.44 µM, the TGI (PC-3 prostate) was 17.2 µM and the GI50 (SK-OV-3 ovarian) was 6.83 µM. It also gave a TGI (SK-OV-3 ovarian) of 43.7 µM, a GI50 (SNB-19 CNS) of 4.84 µM and a TGI (SNB-19 CNS) greater than 100 µM. It also gave a GI50 (RXF 393 renal) of 1.7 µM, a TGI (RXF 393 renal) of 6.51 µM and a GI50 (NCI-H23 lung) of 5.31 µM. The TGI (NCI-H23 lung) was 60.3 µM, the GI50 (SNB-75 CNS) was 1.48 µM and the TGI (SNB-75 CNS) was 4.49 µM. The GI50 (K-562 leukemia) was 1.96 µM, the TGI (K-562 leukemia) was greater than 100 µM and the GI50 (A498 renal) was 1.06 µM. For the same compound, the TGI (A498 renal) was 3.24 µM, the GI50 (EKVX NSCLC) was 10.5 µM and the TGI (EKVX NSCLC) was greater than 100 µM. It also gave a GI50 (HOP-92 NSCLC) of 1.66 µM, a TGI (HOP-92 NSCLC) of 8.64 µM and a GI50 (OVCAR-4 ovarian) of 7.74 µM. It also gave a TGI (OVCAR-4 ovarian) greater than 100 µM, a GI50 (A549 NSCLC) of 6.54 µM and a TGI (A549 NSCLC) greater than 100 µM. The GI50 (UACC-62 melanoma) was 1.9 µM, the TGI (UACC-62 melanoma) was 18.7 µM and the GI50 (COLO 205 colon) was 2.9 µM. The TGI (COLO 205 colon) was 9.57 µM, the GI50 (M14 melanoma) was 3.55 µM and the TGI (M14 melanoma) was 15.8 µM. For the same compound, the GI50 (TK-10 renal) was 8.68 µM, the TGI (TK-10 renal) was 95.3 µM and the GI50 (MOLT-4 leukemia) was 3.65 µM. It also gave a TGI (MOLT-4 leukemia) greater than 100 µM, a GI50 (OVCAR-8 ovarian) of 7.11 µM and a TGI (OVCAR-8 ovarian) greater than 100 µM. For the same compound, the GI50 (DU-145 prostate) was 3.97 µM, the TGI (DU-145 prostate) was greater than 100 µM and the GI50 (LOX IMVI melanoma) was 4.16 µM. The TGI (LOX IMVI melanoma) was 27.3 µM, the GI50 (SK-MEL-2 melanoma) was 6.28 µM and the TGI (SK-MEL-2 melanoma) was 31.1 µM. The GI50 (CAKI-1 renal) was 3.32 µM, the TGI (CAKI-1 renal) was greater than 100 µM and the GI50 (T-47D breast) was 2.82 µM. It also gave a TGI (T-47D breast) of 39 µM, a GI50 (NCI/ADR-RES ovarian) of 3.43 µM and a TGI (NCI/ADR-RES ovarian) of 33 µM. The GI50 (UACC-257 melanoma) was 13.4 µM, the TGI (UACC-257 melanoma) was 35.4 µM and the GI50 (HS 578T breast) was 2.04 µM. For the same compound, the TGI (HS 578T breast) was 9.06 µM, the GI50 (HCT-116 colon) was 3.06 µM and the TGI (HCT-116 colon) was greater than 100 µM. For the same compound, the GI50 (SN12C renal) was 5.51 µM, the TGI (SN12C renal) was greater than 100 µM and the GI50 (MCF7 breast) was 1.13 µM. The TGI (MCF7 breast) was 18.1 µM, the GI50 (OVCAR-3 ovarian) was 2.48 µM and the TGI (OVCAR-3 ovarian) was 12.5 µM. It also gave a GI50 (IGROV1 ovarian) of 4.27 µM, a TGI (IGROV1 ovarian) of 72.6 µM and a GI50 (NCI-H522 lung) of 2.79 µM. It also gave a TGI (NCI-H522 lung) of 18.1 µM, a GI50 (U251 CNS) of 4.19 µM and a TGI (U251 CNS) of 18.9 µM. It also gave a GI50 (OVCAR-5 ovarian) of 12.2 µM, a TGI (OVCAR-5 ovarian) greater than 100 µM and a GI50 (ACHN renal) of 3.68 µM. For the same compound, the TGI (ACHN renal) was 41.2 µM, the GI50 (MDA-MB-231 breast) was 5.82 µM and the TGI (MDA-MB-231 breast) was 38 µM. For the same compound, the GI50 (SR leukemia) was 1.22 µM, the TGI (SR leukemia) was greater than 100 µM and the GI50 (CCRF-CEM leukemia) was 2.72 µM. It also gave a TGI (CCRF-CEM leukemia) of 33.9 µM, a GI50 (BT-549 breast) of 3.17 µM and a TGI (BT-549 breast) of 20.8 µM. For the same compound, the GI50 (HL-60(TB) leukemia) was 2.81 µM, the TGI (HL-60(TB) leukemia) was 20.2 µM and the GI50 (SW-620 colon) was 8.14 µM. It also gave a TGI (SW-620 colon) of 48.1 µM, a GI50 (SF-295 CNS) of 3.28 µM and a TGI (SF-295 CNS) of 14.6 µM. It also gave a GI50 (RPMI-8226 leukemia) of 2.84 µM, a TGI (RPMI-8226 leukemia) of 10.9 µM and a GI50 (UO-31 renal) of 3.44 µM. The TGI (UO-31 renal) was 43.3 µM.
